The values that follow are results of earlier work, collected in article PMC3065210 (Inorganic Chemistry, 2011).

Like-named read-outs stand apart in the source and are kept apart here.

Assay in data set [1]: not given
The source holds these as a separate data set.

In the case of `O=C([O-])CN1CCCN2CCN(CCCN(CC(=O)[O-])CC2)CC1.[Cu+2]` [Cu-CB-TE2A], the acid inertness half-life result (5 M HCl, 90 °C) was “more than 6 d”.
`C1CNCCN2CCNCCN(C1)CC2.[Cu+2]` [Cu-CB-homocyclen]: for the setting “1 M HCl, 30 °C”, the acid inertness half-life is 4.8 h.
Turning to `O=C([O-])CN1CCN2CCN(CC1)CCN(CC(=O)[O-])CC2.[64Cu+2]` [^64Cu-CB-DO2A], in data set [1] (24 h p.i., previously published data (text says mice)), the “accumulation in the liver” value is 0.024 ± 0.002 %ID/g. Further, the activity in blood in data set [1] (rats, 24 h, previously published data) is listed as 0.011 ± 0.004 %ID/g. The “tissue associated radioactivity in kidneys” value in data set [1] (rats, 24 h p.i., previously published data) is 0.064 ± 0.007 %ID/g. Besides, in data set [1] (rats, at 22 or 24 h PI, from published data), the “liver clearance (percent reduction)” value is reported as 69.5%. For the same compound, the kidney clearance in data set [1] (rats, out to 22 or 24 h PI, from published data) is 95.6%.
